In ChEMBL document CHEMBL4828719, “H2dpa derivatives containing pentadentate ligands: An acyclic adjuvant potentiates meropenem activity in vitro and in vivo against metallo-β-lactamase-producing Enterobacterales” (Eur J Med Chem, 2021):
In brackets after ≈: the same amount, converted by molar mass. Activity calls are given as the source filed them. The rule behind the calls is not given here.

Legend:
Escherichia coli [1] = assay: Antibiotic adjuvant activity against VIM-1 producing Escherichia coli DH5alpha assessed as potentiation of meropenem-induced antibacterial activity incubated for 16 to 20 hrs by agar disc diffusion assay; format: functional, organism-based; conditions: DH5[alpha], time 16-20 hrs
Escherichia coli [2] = assay: Antibacterial activity against VIM-1 producing Escherichia coli DH5 alpha assessed as bacterial growth at 8 ug/ml incubated for 16 to 20 hrs by CLSI based microdilution method; format: functional; conditions: dose 8 µg/ml; time 16-20 hrs
[3] = Zinc chelation-dependent inhibition of NDM-1 (unknown origin) expressed in Escherichia coli DH5 alpha using meropenem as substrate preincubated with enzyme for 5 mins followed by substrate addition in the presence of zinc sulfate
Klebsiella pneumoniae [4] = assay: Antibiotic adjuvant activity against meropenem-treated NDM-producing carbapenem resistant Klebsiella pneumoniae infected in BALB/c mouse sepsis model assessed as reduction of bacterial load in liver at 10 mg/kg, ip in the presence of meropenem observed for 2 days; format: functional, organism-based; conditions: time 2.0 day
[5] = Non competitive inhibition of VIM-2 (unknown origin) assessed as inhibition of substrate hydrolysis by measuring decrease in Vmax using nitrocefin as substrate preincubated with enzyme for 5 mins followed by substrate addition by Lineweaver-Burk plot analysis
Escherichia coli [6] = assay: Antibiotic adjuvant activity against meropenem-treated IMP-4 producing Escherichia coli DH5 alpha assessed as inhibition of bacterial growth at 8 ug/ml incubated for 16 to 20 hrs in the presence of meropenem and 1 to 10 uM zinc sulfate by CLSI based microdilution method; format: functional, organism-based; conditions: dose 8.0 µg/ml, time 16-20 hrs
[7] = Acute toxicity in BALB/c mouse assessed as survival rate at 10 to 50 mg/kg, ip administered as single dose measured for 72 hrs; format: organism-based; conditions: in vivo, dose 10-50 mg/kg
[8] = Acute toxicity in BALB/cmouse assessed as change in hematocrit level at 50 mg/kg, ip administered as single dose measured after 24 hrs; format: organism-based, BALB/c; conditions: mouse, in vivo
Klebsiella pneumoniae [9] = assay: Antibiotic adjuvant activity against meropenem-treated NDM-producing carbapenem resistant Klebsiella pneumoniae infected in BALB/c mouse sepsis model assessed as reduction of bacterial load in kidney at 10 mg/kg, ip in the presence of meropenem observed for 2 days; format: functional, organism-based; conditions: time 2.0 day
Escherichia coli [10] = assay: Antibiotic adjuvant activity against meropenem-treated IMP-4 producing Escherichia coli DH5 alpha assessed as bacterial growth at 8 ug/ml incubated for 16 to 20 hrs in the presence of meropenem and 100 uM zinc sulfate by CLSI based microdilution method; format: functional; conditions: dose 8 µg/ml; time 16-20 hrs
Pseudomonas aeruginosa = assay: Antibacterial activity against MBL producing Pseudomonas aeruginosa isolates assessed as inhibition of bacterial growth at 64 ug/ml incubated for 16 to 20 hrs by CLSI based microdilution method; format: functional, organism-based; conditions: dose 64.0 µg/ml, time 16-20 hrs
[11] = Zinc chelation-dependent inhibition of VIM-2 (unknown origin) expressed in Escherichia coli DH5 alpha using nitrocefin as substrate preincubated with enzyme for 5 mins followed by substrate addition in presence of zinc sulfate
[12] = Acute toxicity in BALB/c mouse assessed as change in hemoglobin level at 50 mg/kg, ip administered as single dose measured after 24 hrs; format: organism-based; conditions: in vivo
Klebsiella pneumoniae [13] = assay: Antibacterial activity against MBL producing Klebsiella pneumoniae isolates assessed as inhibition of bacterial growth at 64 ug/ml incubated for 16 to 20 hrs by CLSI based microdilution method; format: functional, organism-based; conditions: dose 64.0 µg/ml, time 16-20 hrs
Escherichia coli [14] = assay: Antibiotic adjuvant activity against meropenem-treated VIM-1 producing Escherichia coli DH5 alpha assessed as bacterial growth at 8 ug/ml incubated for 16 to 20 hrs in the presence of meropenem by CLSI based microdilution method; format: functional; conditions: dose 8 µg/ml; time 16-20 hrs
Citrobacter freundii = assay: Antibacterial activity against MBL producing Citrobacter freundii isolates assessed as inhibition of bacterial growth at 64 ug/ml incubated for 16 to 20 hrs by CLSI based microdilution method; format: functional, organism-based; conditions: dose 64.0 µg/ml, time 16-20 hrs
Escherichia coli [15] = assay: Antibacterial activity against IMP-4 producing Escherichia coli DH5alpha assessed as decrease in bacterial growth incubated for 16 to 20 hrs by CLSI based microdilution method; format: functional; conditions: DH5[alpha], time 16-20 hrs
Escherichia coli [16] = assay: Synergistic antibacterial activity against IMP-4 producing Escherichia coli DH5alpha assessed as fractional inhibitory concentration index incubated for 16 to 20 hrs in presence of meropenem by checkerboard assay; format: functional, DH5[alpha]; conditions: time 16-20 hrs
Escherichia coli [17] = assay: Antibacterial activity against VIM-1 producing Escherichia coli DH5alpha assessed as decrease in bacterial growth incubated for 16 to 20 hrs by CLSI based microdilution method; format: functional; conditions: DH5[alpha], time 16-20 hrs
[18] = Acute toxicity in BALB/c mouse assessed as change in creatinine level in serum at 50 mg/kg, ip administered as single dose measured after 24 hrs; format: organism-based; conditions: in vivo
[19] = Acute toxicity in BALB/c mouse assessed as pathological changes in kidney at 50 mg/kg, ip administered as single dose measured after 24 hrs by hematoxylin and eosin staining based assay; format: organism-based; conditions: in vivo
Escherichia coli [20] = assay: Antibiotic adjuvant activity against IMP-4 producing Escherichia coli DH5alpha assessed as potentiation of meropenem-induced antibacterial activity incubated for 16 to 20 hrs by agar disc diffusion assay; format: functional, organism-based; conditions: DH5[alpha], time 16-20 hrs
Escherichia coli [21] = assay: Antibiotic adjuvant activity against NDM-1 producing Escherichia coli DH5alpha assessed as potentiation of meropenem-induced antibacterial activity incubated for 16 to 20 hrs by agar disc diffusion assay; format: functional, organism-based; conditions: DH5[alpha], time 16-20 hrs
[22] = Non competitive inhibition of IMP-1 (unknown origin) assessed as inhibition of substrate hydrolysis by measuring decrease in Vmax using imipenem as substrate preincubated with enzyme for 5 mins followed by substrate addition by Lineweaver-Burk plot analysis
[23] = Zinc chelation-dependent inhibition of IMP-1 (unknown origin) expressed in Escherichia coli DH5 alpha using imipenem as substrate preincubated with enzyme for 5 mins followed by substrate addition in the presence of zinc sulfate
Klebsiella pneumoniae [24] = assay: Antibiotic adjuvant activity against meropenem-treated NDM-producing carbapenem resistant Klebsiella pneumoniae infected in BALB/c mouse sepsis model assessed as reduction of bacterial load in spleen at 10 mg/kg, ip in the presence of meropenem observed for 2 days; format: functional, organism-based; conditions: time 2.0 day
Escherichia coli [25] = assay: Antibiotic adjuvant activity against NDM-1 producing Escherichia coli DH5alpha assessed as potentiation of meropenem-induced antibacterial activity by measuring meropenem MIC at 16 ug/ml incubated for 16 to 20 hrs by checkerboard assay (reference value: 32 ug/ml); format: functional; conditions: DH5[alpha], dose 16 µg/ml, time 16-20 hrs
[26] = Toxicity in sheep RBC assessed as induction of hemolysis at 1024 microg/ml measured after 1 hr relative to control; format: tissue-based, Ovis aries, Erythrocyte; conditions: sheep red blood cells, at 1024 µg/mL, read-out: Activity
Escherichia coli [27] = assay: Synergistic antibacterial activity against NDM-1 producing Escherichia coli DH5alpha assessed as fractional inhibitory concentration index incubated for 16 to 20 hrs in presence of meropenem by checkerboard assay; format: functional, DH5[alpha]; conditions: time 16-20 hrs
Klebsiella pneumoniae [28] = assay: Antibacterial activity against NDM-producing carbapenem resistant Klebsiella pneumoniae infected in BALB/c mouse sepsis model assessed as swollen and degenerated liver cells with localized focal necrosis at 10 mg/kg, ip observed for 2 days by HE staining based assay; format: functional, organism-based; conditions: time 2.0 day
Escherichia coli [29] = assay: Antibiotic adjuvant activity against meropenem-treated VIM-1 producing Escherichia coli DH5 alpha assessed as bacterial growth at 8 ug/ml incubated for 16 to 20 hrs in the presence of meropenem and 100 uM zinc sulfate by CLSI based microdilution method; format: functional; conditions: dose 8 µg/ml; time 16-20 hrs
[30] = Acute toxicity in BALB/c mouse assessed as change in urea level in serum at 50 mg/kg, ip administered as single dose measured after 24 hrs; format: organism-based; conditions: in vivo

Structure (SMILES) | Activity (Escherichia coli [1]) | Activity (Escherichia coli [2]) [%] | Activity [3] | Activity (Klebsiella pneumoniae [4]) | Ki [5] [µM] | Activity (Escherichia coli [6]) | survival at 72 h [7] [%] | Activity [8] | Activity (Klebsiella pneumoniae [9]) | Activity (Escherichia coli [10]) [%] | Activity (Pseudomonas aeruginosa) | Activity [11] | Activity [12] | Activity (Klebsiella pneumoniae [13]) | Activity (Escherichia coli [14]) [%] | Activity (Citrobacter freundii) | MIC (Escherichia coli [15]) [mg/L] | fractional inhibitory concentration index (FICI) (Escherichia coli [16]) | MIC (Escherichia coli [17]) [mg/L] | Activity [18] | other results
C[C@@H](C(=O)O)N(Cc1cccc(C(=O)O)n1)Cc1cccc(C(=O)O)n1 | Active | 95 | inactive | Active | 5.83 | Active | 100 | Non-Toxic | Active | 100 | inactive | inactive | Non-Toxic | inactive | <10 | inactive | 128 (≈ 356 µM) | 0.14 | 128 (≈ 356 µM) | Non-Toxic | Activity [19]: Non-Toxic; Activity (Escherichia coli [20]): Active; Activity (Escherichia coli [21]): Active; Ki [22]: 1.54 µM; Activity [23]: inactive; Activity (Klebsiella pneumoniae [24]): Active; MIC (Escherichia coli [25]): < 0.0312 mg/L; hemolysis at 1 h, 1024 microg/ml [26]: < 7%; fractional inhibitory concentration index (FICI) (Escherichia coli [27]): 0.07; Activity (Klebsiella pneumoniae [28]): inactive; Activity (Escherichia coli [29]): 100%; Activity [30]: Non-Toxic
C[C@H](C(=O)O)N(Cc1cccc(C(=O)O)n1)Cc1cccc(C(=O)O)n1 | Active | 95 | inactive | Active | 6.16 | Active | 100 | Non-Toxic | Active | 100 | inactive | inactive | Non-Toxic | inactive | <10 | inactive | 128 (≈ 356 µM) | 0.14 | 128 (≈ 356 µM) | Non-Toxic | Activity [19]: Non-Toxic; Activity (Escherichia coli [20]): Active; Activity (Escherichia coli [21]): Active; Ki [22]: 1.57 µM; Activity [23]: inactive; Activity (Klebsiella pneumoniae [24]): Active; MIC (Escherichia coli [25]): < 0.0312 mg/L; hemolysis at 1 h, 1024 microg/ml [26]: < 7%; fractional inhibitory concentration index (FICI) (Escherichia coli [27]): 0.07; Activity (Klebsiella pneumoniae [28]): inactive; Activity (Escherichia coli [29]): 100%; Activity [30]: Non-Toxic
